# From ChEMBL document CHEMBL4219188, “Design, synthesis, neuroprotective, antibacterial activities and docking studies of novel thieno[2,3-d]pyrimidine-alkyne Mannich base and oxadiazole hybrids” (Bioorg Med Chem Lett, 2018)
# Key:
# [1] = Cytotoxicity against rat PC12 cells assessed as cell viability at MNTC after 24 hrs by MTT assay relative to control; type: cell-based, PC-12; details: read-out: Activity
# Staphylococcus aureus [2] = assay: Antibacterial activity against Staphylococcus aureus after 24 hrs by UV-vis spectrophotometric method; type: functional
# Bacillus subtilis [3] = assay: Antibacterial activity against Bacillus subtilis assessed as diameter of inhibition zone measured after 24 hrs by agar well diffusion method; type: functional; further: test concentration or dose not given here
# PC-12 [4] = assay: Neuroprotective activity against H2O2-induced cytotoxicity in rat PC12 cells assessed as cell viability at EC50 pretreated for 24 hrs followed by H2O2 addition by MTT assay relative to control; type: functional
# Escherichia coli [5] = assay: Antibacterial activity against Escherichia coli after 24 hrs by UV-vis spectrophotometric method; type: functional
# Escherichia coli [6] = assay: Antibacterial activity against Escherichia coli assessed as diameter of inhibition zone measured after 24 hrs by agar well diffusion method; type: functional; further: test concentration or dose not given here
# [7] = Cytotoxicity against rat PC12 cells after 24 hrs by MTT assay; type: cell-based, PC-12; details: for MNTC at 24 h: read-out: MNCC
# [8] = Cytotoxicity against rat PC12 cells assessed as cell viability at CC50 after 24 hrs by MTT assay relative to control; type: cell-based, PC-12; details: read-out: Activity
# Pseudomonas aeruginosa [9] = assay: Antibacterial activity against Pseudomonas aeruginosa assessed as diameter of inhibition zone measured after 24 hrs by agar well diffusion method; type: functional; further: test concentration or dose not given here
# PC-12 [10] = assay: Neuroprotective activity against H2O2-induced cytotoxicity in rat PC12 cells assessed as increase in cell viability pretreated for 24 hrs followed by H2O2 addition by MTT assay; type: functional, cell-based
# Pseudomonas aeruginosa [11] = assay: Antibacterial activity against Pseudomonas aeruginosa after 24 hrs by UV-vis spectrophotometric method; type: functional
# Bacillus subtilis [12] = assay: Antibacterial activity against Bacillus subtilis after 24 hrs by UV-vis spectrophotometric method; type: functional
# Staphylococcus aureus [13] = assay: Antibacterial activity against Staphylococcus aureus assessed as diameter of inhibition zone measured after 24 hrs by agar well diffusion method; type: functional; further: test concentration or dose not given here
Compound,viability at 24 h [1],MIC (Staphylococcus aureus [2]),diameter of the inhibition zone (DIZ) (Bacillus subtilis [3]),Activity (PC-12 [4]),MIC (Escherichia coli [5]),diameter of the inhibition zone (DIZ) (Escherichia coli [6]),CC50 at 24 h [7],MNTC at 24 h [7],viability at 24 h [8],diameter of the inhibition zone (DIZ) (Pseudomonas aeruginosa [9]),Activity (PC-12 [10]),EC50 (PC-12 [10]),MIC (Pseudomonas aeruginosa [11]),MIC (Bacillus subtilis [12]),diameter of the inhibition zone (DIZ) (Staphylococcus aureus [13])
Cc1ccc(-c2nnc(-c3sc4ncnc(N5CCOCC5)c4c3C)o2)cc1,97.6%,0.0546 µg/mL,15 mm,74.2%,0.0132 µg/mL,18 mm,86.1 µg/mL,68 µg/mL,49.2%,14 mm,Dose-dependent effect,26.6 µg/mL,0.0442 µg/mL,0.0464 µg/mL,18 mm
Cc1ccc(C#N)c(N2CCN(CC#CCOC(=O)c3sc4ncnc(N5CCOCC5)c4c3C)CC2)c1,98.5%,0.062 µg/mL,13 mm,74.98%,0.0324 µg/mL,13 mm,146 µg/mL,118 µg/mL,49.1%,14 mm,Dose-dependent effect,41.3 µg/mL,0.0624 µg/mL,0.0156 µg/mL,7 mm
Cc1c(-c2nnc(-c3ccc(Cl)cc3)o2)sc2ncnc(N3CCCCC3)c12,98.2%,0.0224 µg/mL,13 mm,75.04%,0.186 µg/mL,15 mm,151 µg/mL,136 µg/mL,48.9%,14 mm,Dose-dependent effect,21.8 µg/mL,0.144 µg/mL,0.0284 µg/mL,16 mm
COc1ccc(-c2nnc(-c3sc4ncnc(N5CCCCC5)c4c3C)o2)cc1,99%,0.0366 µg/mL,14 mm,75.12%,0.0486 µg/mL,17 mm,124 µg/mL,100 µg/mL,49.9%,12 mm,Dose-dependent effect,20.1 µg/mL,0.0448 µg/mL,0.0642 µg/mL,10 mm
